Assay results reported in US10913736B2 (UNIVERSITY OF WASHINGTON, priority 2014, dated 2021).
“And” between values parts separate entries of the source, which are not always exact repeats. Equal values may be shown once. Read-outs that look alike come from different tables or passages of the source.

Columns and labels:
MetRS (T. brucei) = MetRS (T. brucei) (Trypanosoma brucei brucei, UniProt Q38C91); assay: MetRS (T. brucei) ATP depletion assay using Kinase-Glo; assay type: biochemical
T. brucei = assay: Growth inhibition assay of T. brucei cell cultures (Alamar Blue, 48 h); assay type: cell-based
MetRS (S. aureus) = MetRS (S. aureus) (Staphylococcus aureus, UniProt Q5HII6); assay: biochemical; details: ATP depletion, Kinase-Glo; read-out: H) MetRS (S. aureus) ATP depletion assay using Kinase-Glo with modified cpd dilution method, IC50
Sequence of MetRS (S. aureus) (Q5HII6 whole entry): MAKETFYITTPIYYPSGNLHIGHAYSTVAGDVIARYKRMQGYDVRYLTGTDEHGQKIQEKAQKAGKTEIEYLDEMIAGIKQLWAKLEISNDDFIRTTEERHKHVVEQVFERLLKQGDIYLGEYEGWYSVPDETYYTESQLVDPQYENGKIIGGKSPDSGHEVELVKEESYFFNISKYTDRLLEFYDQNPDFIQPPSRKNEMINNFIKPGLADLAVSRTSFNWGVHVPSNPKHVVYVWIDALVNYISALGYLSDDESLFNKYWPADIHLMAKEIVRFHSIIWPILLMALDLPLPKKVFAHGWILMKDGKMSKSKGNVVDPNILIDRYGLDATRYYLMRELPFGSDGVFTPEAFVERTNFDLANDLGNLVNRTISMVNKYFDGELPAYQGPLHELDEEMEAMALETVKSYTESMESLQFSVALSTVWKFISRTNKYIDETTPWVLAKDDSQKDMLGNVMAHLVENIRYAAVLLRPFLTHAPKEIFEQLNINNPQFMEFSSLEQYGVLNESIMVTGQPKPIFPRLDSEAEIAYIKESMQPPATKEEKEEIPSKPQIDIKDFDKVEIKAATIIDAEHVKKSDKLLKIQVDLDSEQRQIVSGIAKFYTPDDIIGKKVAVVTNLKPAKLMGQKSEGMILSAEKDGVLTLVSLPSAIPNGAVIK

T. cruzi = T. cruzi growth inhibition EC50; assay type: cell-based; details: Trypanosoma cruzi; read-out: C) T. cruzi EC50
[1] = Trypanosoma brucei; read-out: B) T. brucei EC50

Sequence of MetRS (T. brucei) (Q38C91 entry or part of it): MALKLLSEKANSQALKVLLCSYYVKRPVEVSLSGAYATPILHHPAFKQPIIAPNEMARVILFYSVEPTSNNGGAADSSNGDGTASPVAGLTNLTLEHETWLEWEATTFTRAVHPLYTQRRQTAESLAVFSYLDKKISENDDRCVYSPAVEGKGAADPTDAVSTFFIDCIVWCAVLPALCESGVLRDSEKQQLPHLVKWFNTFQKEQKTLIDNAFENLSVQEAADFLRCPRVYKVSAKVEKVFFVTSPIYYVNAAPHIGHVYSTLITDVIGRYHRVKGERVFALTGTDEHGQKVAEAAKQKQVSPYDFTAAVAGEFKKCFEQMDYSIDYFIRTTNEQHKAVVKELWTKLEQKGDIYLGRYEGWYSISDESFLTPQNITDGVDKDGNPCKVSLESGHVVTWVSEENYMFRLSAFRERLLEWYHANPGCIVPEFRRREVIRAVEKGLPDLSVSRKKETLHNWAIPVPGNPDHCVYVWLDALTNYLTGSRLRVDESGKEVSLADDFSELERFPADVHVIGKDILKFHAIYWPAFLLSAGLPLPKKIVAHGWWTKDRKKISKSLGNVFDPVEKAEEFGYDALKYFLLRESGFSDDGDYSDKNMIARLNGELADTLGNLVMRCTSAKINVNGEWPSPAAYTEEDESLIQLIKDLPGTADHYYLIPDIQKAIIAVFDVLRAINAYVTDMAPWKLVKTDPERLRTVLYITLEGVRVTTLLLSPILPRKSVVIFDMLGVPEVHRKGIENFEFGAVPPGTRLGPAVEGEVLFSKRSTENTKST

`O=c1[nH]c(Cc2ccc(Cl)cc2Cl)cn1Cc1nc2ccc(F)nc2[nH]1` [Compound 1962, 5-(2,4-dichlorobenzyl)-3-((5-fluoro-3H-imidazo[4,5-b]pyridin-2-yl)methyl)-1H-imidazol-2(3H)-one] showed an IC50 (MetRS (T. brucei)) of 19 nM, an EC50 (T. brucei; [1]) of 12.9 nM and an IC50 (MetRS (S. aureus)) of 17 nM.
In the case of `O=C(Cc1cc(Cl)cc(Cl)c1)NCc1nc2ccc(Cl)nc2[nH]1` [Compound 1875, N-({5-chloro-3H-imidazo[4,5-b]pyridin-2-yl}methyl)-2-(3,5-dichlorophenyl)acetamide], the IC50 (MetRS (T. brucei)) is reported as 38 nM, the EC50 (T. brucei; [1]) is reported as 1900 nM and the EC50 (T. cruzi) is reported as 13100 nM.
Compound `Clc1cc(Cl)cc(CNC2CCCC(c3nc4nc(Cl)ccc4[nH]3)C2)c1` (stereo not drawn) [Compound 1788, 3-(5-chloro-1H-imidazo[4,5-b]pyridin-2-yl)-N-(3,5-dichlorobenzyl)cyclohexanamine] has an IC50 (MetRS (T. brucei)) of 124 nM, an EC50 (T. brucei; [1]) of 359 nM and an EC50 (T. cruzi) of 4170 nM.
Work on `CCC(=O)N(CCN(C)c1nc2nc(Cl)ccc2[nH]1)Cc1cc(Cl)cc(Cl)c1` [Compound 1942, N-(3,5-dichlorobenzyl)-N-(2-(5-chloro-N-methyl-1H-imidazo[4,5-b]pyridin-2-ylamino)ethyl)propionamide] yielded an IC50 (MetRS (T. brucei)) of 20 nM, an EC50 (T. brucei; [1]) of 145 nM and an IC50 (MetRS (S. aureus)) of 104 nM.
For `Clc1ccc(CNC2CCCC(c3nc4nc(Cl)ccc4[nH]3)C2)c(Cl)c1` (stereo not drawn) [Compound 1809, 3-(5-chloro-1H-imidazo[4,5-b]pyridin-2-yl)-N-(2,4-dichlorobenzyl) cyclohexanamine], the IC50 (MetRS (T. brucei)) was 43 nM, the EC50 (T. brucei; [1]) was 821 nM and the EC50 (T. cruzi) was 3460 nM.
`COC(=O)N(CCN(C)c1nc2nc(Cl)ccc2[nH]1)Cc1cc(Cl)cc(Cl)c1` [Compound 1963, methyl 3,5-dichlorobenzyl2-(5-chloro-N-methyl-1H-imidazo[4,5-b]pyridin-2-ylamino)ethylcarbamate] was tested, and the IC50 (MetRS (T. brucei)) was 21 nM, the EC50 (T. brucei; [1]) was 97.4 nM and the IC50 (MetRS (S. aureus)) was 348 nM.
`OC(CNCc1cc(Cl)cc(Cl)c1)CNc1nc2cccnc2[nH]1` (stereo not drawn) [Compound 1634, 1-((1H-imidazo[4,5-b]pyridin-2-yl)amino)-3-((3,5-dichlorobenzyl)amino)propan-2-ol] gave an IC50 (MetRS (T. brucei)) of 133 nM, an EC50 (T. brucei; [1]) of 121 nM and an EC50 (T. cruzi) of 9760 nM.
`CC(=O)N(CCCc1nc2nc(F)ccc2[nH]1)Cc1cc(Cl)cc(Cl)c1` [Compound 1835, N-(3,5-dichlorobenzyl)-N-(3-(5-fluoro-1H-imidazo[4,5-b]pyridin-2-yl)propyl)acetamide] was tested, and the IC50 (MetRS (T. brucei)) was 23 nM, the EC50 (T. brucei; [1]) was 873 nM and the EC50 (T. cruzi) was over 20000 nM.
With `O=C(CCOc1ccc(Cl)cc1Cl)NCc1nc2ccc(F)nc2[nH]1` [Compound 1705, 3-(2,4-dichlorophenoxy)-N-({5-fluoro-3H-imidazo[4,5-b]pyridin-2-yl}methyl)propanamide] the IC50 (MetRS (T. brucei)) was 100 nM, the EC50 (T. brucei; [1]) was 8840 nM and the IC50 (MetRS (S. aureus)) was 1690 nM.
For `Cc1ccc2[nH]c(NCCCNCc3cc(Cl)cc(Cl)c3)nc2n1` [Compound 1599, N1-(3,5-dichlorobenzyl)-N3-(5-methyl-1H-imidazo[4,5-b]pyridin-2-yl)propane-1,3-diamine], the IC50 (MetRS (T. brucei)) was 45 nM and 59 nM, the EC50 (T. brucei; [1]) was 662 nM and the EC50 (T. cruzi) was 2910 nM.
Compound `CCOc1c(Cl)cc(Cl)cc1CNCCN(C)c1nc2nc(Cl)ccc2[nH]1` [Compound 1925, 5-chloro-N-(2-{[(3,5-dichloro-2-ethoxyphenyl)methyl]amino}ethyl)-N-methyl-3H-imidazo[4,5-b]pyridin-2-amine] has an IC50 (MetRS (T. brucei)) of 15 nM, an EC50 (T. brucei; [1]) of 314 nM and an IC50 (MetRS (S. aureus)) of 266 nM.
`CC(=O)N(CCN(C)c1nc2nc(F)ccc2[nH]1)Cc1cc(Cl)cc(Cl)c1` [Compound 1914, N-[(3,5-dichlorophenyl)methyl]-N-[2-({5-fluoro-1H-imidazo[4,5-b]pyridin-2-yl}(methyl)amino)ethyl]acetamide] gave an IC50 (MetRS (T. brucei)) of 18 nM, an EC50 (T. brucei; [1]) of 252 nM and an IC50 (MetRS (S. aureus)) of 303 nM.
Compound `Fc1ccc2nc(NCCCNc3cc(Cl)cc(Cl)c3)[nH]c2n1` [Compound 1954, 3,5-dichloro-N-[3-({5-fluoro-3H-imidazo[4,5-b]pyridin-2-yl}amino)propyl]aniline] has an IC50 (MetRS (T. brucei)) of 61 nM, an EC50 (T. brucei; [1]) of 369 nM and an EC50 (T. brucei; read-out: B) T. brucei EC50) of 565 nM. The IC50 (MetRS (S. aureus)) was 928 nM.
For `NN(C(=O)/C=C/Oc1ccc(Cl)cc1Cl)c1nc2ccccc2[nH]1` [Compound 1766, (2E)-N-(1H-1,3-benzodiazol-2-yl)-3-(2,4-dichlorophenoxy)prop-2-enehydrazide], the IC50 (MetRS (T. brucei)) was 297 nM, the EC50 (T. brucei; [1]) was 3530 nM and the EC50 (T. cruzi) was over 5000 nM.
With `Clc1cc(Cl)cc(CNCCNc2nc3ccc(Cl)cc3[nH]2)c1` [Compound 1829, {2-[(6-chloro-1H-1,3-benzodiazol-2-yl)amino]ethyl}[(3,5-dichlorophenyl)methyl]amine] the IC50 (MetRS (T. brucei)) was 85 nM, the EC50 (T. brucei; [1]) was 539 nM and the EC50 (T. cruzi) was 3040 nM.
With `CC(=O)N(CCCc1nc2ccc(Cl)nc2[nH]1)Cc1cc(Cl)cc(Cl)c1` [Compound 1895, N-(3-(5-chloro-1H-imidazo[4,5-b]pyridin-2-yl)propyl)-N-(3,5-dichlorobenzyl)acetamide] the IC50 (MetRS (T. brucei)) was 17 nM, the EC50 (T. brucei; [1]) was 569 nM and the IC50 (MetRS (S. aureus)) was 445 nM.
In the case of `Clc1cc(Cl)cc(CNc2cccc(-c3nc4ccc(Cl)nc4[nH]3)c2)c1` [Compound 1966, 3-{5-chloro-3H-imidazo[4,5-b]pyridin-2-yl}-N-[(3,5-dichlorophenyl)methyl]amine], the IC50 (MetRS (T. brucei)) is reported as 72 nM, the EC50 (T. brucei; [1]) is reported as 1030 nM and the IC50 (MetRS (S. aureus)) is reported as 5730 nM.
For `CC(=O)N(Cc1cc(Cl)cc(Cl)c1)C1CCCC(c2nc3nc(Cl)ccc3[nH]2)C1` (stereo not drawn) [Compound 1789, N-(3-(5-chloro-1H-imidazo[4,5-b]pyridin-2-yl)cyclohexyl)-N-(3,5-dichlorobenzyl)acetamide], the IC50 (MetRS (T. brucei)) was 89 nM, the EC50 (T. brucei; [1]) was 2810 nM and the EC50 (T. cruzi) was 4990 nM.
`Clc1cc(Cl)cc(CNCCCc2nc3ccc(Cl)nc3[nH]2)c1` [Compound 1881, (3-{5-chloro-3H-imidazo[4,5-b]pyridin-2-yl}propyl)[(3,5-dichlorophenyl)methyl]amine] gave an IC50 (MetRS (T. brucei)) of 35 nM, an EC50 (T. brucei; [1]) of 307 nM and an EC50 (T. cruzi) of 5870 nM.
`Clc1cc(Cl)cc(NC[C@@H]2CCCN(c3nc4nc(Cl)ccc4[nH]3)C2)c1` [Compound 1923, (S)-3,5-dichloro-N-((1-(5-chloro-1H-imidazo[4,5-b]pyridin-2-yl)piperidin-3-yl)methyl)aniline] showed an IC50 (MetRS (T. brucei)) of 32 nM, an EC50 (T. brucei; [1]) of 566 nM and an IC50 (MetRS (S. aureus)) of 504 nM.
For `N#Cc1c(NCCCNCc2cc(Cl)cc(Cl)c2)[nH]c2cccnc12` [Compound 1627, 2-(3-(3,5-dichlorobenzylamino)propylamino)-1H-pyrrolo[3,2-b]pyridine-3-carbonitrile], the IC50 (MetRS (T. brucei)) was 61 nM, the EC50 (T. brucei; [1]) was over 9.08 nM and the EC50 (T. brucei; read-out: B) T. brucei EC50) was 4.6 nM. The EC50 (T. cruzi) was 623 nM.
Compound `Clc1cc(Cl)cc(CNCCc2nc3ncc(Cl)cc3[nH]2)c1` [Compound 1844, (2-{6-chloro-3H-imidazo[4,5-b]pyridin-2-yl}ethyl)[(3,5-dichlorophenyl)methyl]amine] has an IC50 (MetRS (T. brucei)) of 60 nM, an EC50 (T. brucei; [1]) of 598 nM and an EC50 (T. cruzi) of 5420 nM.
`CN(CCN(Cc1cc(Cl)cc(Cl)c1)C(=O)CCN)c1nc2nc(Cl)ccc2[nH]1` [Compound 1958, 3-amino-N-[2-({5-chloro-1H-imidazo[4,5-b]pyridin-2-yl}(methyl)amino)ethyl]-N-[(3,5-dichlorophenyl)methyl]propanamide] showed an IC50 (MetRS (T. brucei)) of 13 nM, an EC50 (T. brucei; [1]) of 62.4 nM and an EC50 (T. brucei; read-out: B) T. brucei EC50) of 33.1 nM. It also gave an IC50 (MetRS (S. aureus)) of 381 nM.
`Clc1cc(Cl)cc(NCCCNc2nc3ccc(Cl)nc3[nH]2)c1` [Compound 1967] gave an IC50 (MetRS (T. brucei)) of 88 nM, an EC50 (T. brucei; [1]) of 2300 nM and an IC50 (MetRS (S. aureus)) of over 1000 nM.
With `O=C(NCc1nc2cccnc2[nH]1)OCCc1ccc(Cl)cc1Cl` [Compound 1706, 2-(2,4-dichlorophenyl)ethyl N-{3H-imidazo[4,5-b]pyridin-2-ylmethyl}carbamate] the IC50 (MetRS (T. brucei)) was 38 nM, the EC50 (T. brucei; [1]) was 2760 nM and the IC50 (MetRS (S. aureus)) was 83 nM.
For `O=C(CNc1nc2ccc(Cl)nc2[nH]1)NCc1cc(Cl)cc(Cl)c1` [Compound 1970, 2-((5-chloro-3H-imidazo[4,5-b]pyridin-2-yl)amino)-N-(3,5-dichlorobenzyl)acetamide], the IC50 (MetRS (T. brucei)) was 69 nM, the EC50 (T. brucei; [1]) was 2980 nM and the IC50 (MetRS (S. aureus)) was 1080 nM.
`COc1ccc(Oc2cc(NCc3nc4ccccc4[nH]3)ccn2)c(Cl)c1` [Compound 1950, N-(1H-1,3-benzodiazol-2-ylmethyl)-2-(2-chloro-4-methoxyphenoxy)pyridin-4-amine] gave an IC50 (MetRS (T. brucei)) of 50 nM and an IC50 (MetRS (S. aureus)) of 797 nM.
For `CC(=O)N(CCNc1nc2nc(F)ccc2[nH]1)Cc1cc(Cl)cc(Cl)c1` [Compound 1897, N-(3,5-dichlorobenzyl)-N-(2-((5-fluoro-1H-imidazo[4,5-b]pyridin-2-yl)amino)ethyl) acetamide], the IC50 (MetRS (T. brucei)) was 16 nM, the EC50 (T. brucei; [1]) was 653 nM and the IC50 (MetRS (S. aureus)) was 606 nM.
For `Oc1c(Cl)cc(Cl)cc1CN[C@H]1CCCN(c2nc3nc(Cl)ccc3[nH]2)C1` [Compound 1921], the IC50 (MetRS (T. brucei)) was 25 nM, the EC50 (T. brucei; [1]) was 241 nM and the IC50 (MetRS (S. aureus)) was 1570 nM.
For `CC(=O)N(Cc1cc(Cl)cc(Cl)c1)C1CCCC(c2nc3nc(F)ccc3[nH]2)C1` (stereo not drawn) [Compound 1801, N-(3,5-dichlorobenzyl)-N-(3-(5-fluoro-1H-imidazo[4,5-b]pyridin-2-yl)cyclohexyl)acetamide], the IC50 (MetRS (T. brucei)) was 533 nM and 569 nM and the EC50 (T. cruzi) was 252 nM.
`CC(=O)N(CCCNc1nc2ccc(F)nc2[nH]1)Cc1cc(Cl)cc(Cl)c1` [Compound 1959, N-(3,5-dichlorobenzyl)-N-(3-(5-fluoro-3H-imidazo[4,5-b]pyridin-2-ylamino)propyl)acetamide] was tested, and the IC50 (MetRS (T. brucei)) was 16 nM, the EC50 (T. brucei; [1]) was 39.3 nM and the EC50 (T. brucei; read-out: B) T. brucei EC50) was 51.1 nM. It also gave an IC50 (MetRS (S. aureus)) of 12 nM.
For `Clc1ccc2[nH]c(N3CCC[C@H](NCc4cc(Br)cc(Br)c4)C3)nc2n1` [Compound 1908, (S)-1-(5-chloro-1H-imidazo[4,5-b]pyridin-2-yl)-N-(3,5-dibromobenzyl) piperidin-3-amine], the IC50 (MetRS (T. brucei)) was 15 nM, the EC50 (T. brucei; [1]) was 85.2 nM and the IC50 (MetRS (S. aureus)) was 155 nM.
Compound `CN(CCN(Cc1cc(Cl)cc(Cl)c1)C(=O)CO)c1nc2ccc(Cl)nc2[nH]1` [Compound 1971, N-(3,5-dichlorobenzyl)-N-(2-(5-chloro-N-methyl-1H-imidazo[4,5-b]pyridin-2-ylamino)ethyl)-2-hydroxyacetamide] has an IC50 (MetRS (T. brucei)) of 13 nM, an EC50 (T. brucei; [1]) of 62.3 nM and an EC50 (T. brucei; read-out: B) T. brucei EC50) of 40.4 nM. It also gave an IC50 (MetRS (S. aureus)) of 85 nM.
